Measured values as given in patent publication US11865126B2, “Method for treating anxiety disorders, headache disorders, and eating disorders with psilocybin” (priority 2019, dated 2024).

Test system: healthy subjects
Assay: Phase 1 healthy volunteer study, single oral dose: treatment-emergent adverse events
Assay type: in vivo, human
Procedure: A Phase 1 randomized, double-blind, placebo-controlled study to evaluate the effect of psilocybin on cognitive and emotional processing as compared to placebo in healthy volunteers was conducted. The study investigated the short-term (Day 7) and long-term (Day 28) effects of moderate (10 mg) and high doses (25 mg) of psilocybin on key domains of cognition, such as episodic memory, attention, working and spatial memory, social cognition and elements of executive function, including cognitive flexibility.
90 healthy subjects were studied. Approximately 50% of the subjects were psilocybin-naïve. For subjects with prior psilocybin experience, the last exposure was at least 1 year prior to the signing of the Informed Consent Form (ICF). Approximately 50% of the subjects were female. Subjects were stratified by sex and age (18-35 years old; >35 years old).
Each subject was assigned 1 treatment bottle containing 5 capsules packaged in a double-blind fashion, depending on the randomized treatment arm, the bottle contained one of the following: • a. Psilocybin 10 mg: 2×5-mg oral psilocybin capsules plus 3× placebo capsules • b. Psilocybin 25 mg: 5×5-mg oral psilocybin capsules • c. Placebo: 5× placebo capsules
Each 5-mg oral psilocybin capsule comprised 5 mg crystalline psilocybin in the form of Polymorph A, 12.5 mg of SMCC 50, 79.5 mg of SMCC 90, 1 mg sodium starch glycolate, 1 mg colloidal silicon dioxide, and 1 mg sodium stearyl fumarate
Adverse events: Throughout the course of the study, all AEs were monitored and recorded. Each AE was classified according to the following criteria: • i. […] Moderate: The AE produces some impairment of functioning, but is not hazardous to the subject's health. • iii. Severe: The AE produces significant impairment of functioning or incapacitation and is a definite hazard to the subject's health.
Selected Adverse Events of included: • (a) Euphoric mood • (b) Dissociative disorder • (c) Hallucination • (d) Psychotic disorder • (e) Cognitive disorder • (f) Disturbance in attention • (g) Altered mood • (h) Impairment of psychomotor skills • (i) Inappropriate affect • (j) Overdose • (k) Intentional product misuse • (l) Illusion
For example, drug-induced hepatitis that resolved without evidence of hepatic failure would not be considered life threatening even though drug-induced hepatitis can be fatal. • (c) Inpatient hospitalization or prolongation of existing hospitalization. • (d) Persistent or significant disability/incapacity. • (e) Congenital anomaly/birth defect in the offspring of a subject who received psilocybin. • (f) Other: Important medical events that may not result in death, be life-threatening, or require hospitalization, may be considered an SAE when, based upon appropriate medical judgment, they may jeopardize the subject and may require medical or surgical intervention to prevent one of the outcomes listed in this definition. […] Visits:
Visit 3 (V3): Drug Administration (Day 0): The subject was asked to eat a light breakfast at least two hours prior to coming to the clinic for study drug administration. On Day 0 (V3), the subject underwent the SSTS, had vital signs obtained, medications reviewed, AEs recorded and eligibility reviewed prior to being randomized to study drug. The study drug was administered to up to six subjects simultaneously in individual beds separated by a curtain. The subject was invited to put on eyeshades and headphones, lie down and listen to calming music for the rest of the session (six hours). The subject was supported 1:1 with a chaperone and supervised by the study psychiatrist and lead therapist.
Recording of adverse events and prior/concomitant medication was performed at each visit.
During administration of psilocybin, each subject received one on one support from a trained assisting therapist and each dosing session was supervised by a study psychiatrist and a lead therapist. […]

CN(C)CCc1c[nH]c2cccc(OP(=O)(O)O)c12 [psilocybin]
Infections and infestations, worst severity Severe: N (%) (10 mg): 0 | Infections and infestations: Events (10 mg): 4 | Investigations, worst severity Mild: Events (10 mg): 2 | Investigations, worst severity Moderate: Events (10 mg): 0 | Investigations, worst severity Moderate: N (%) (10 mg): 0 | Investigations, worst severity Severe: Events (10 mg): 0 | Investigations, worst severity Severe: N (%) (10 mg): 0 | Investigations: Events (10 mg): 2 | Mental fatigue: Events (10 mg): 0 | Mental fatigue: N (%) (10 mg): 0 | Mood altered, worst severity Mild: Events (10 mg): 2 | Mood altered, worst severity Moderate: Events (10 mg): 8 | Mood altered, worst severity Severe: Events (10 mg): 9 | Mood altered, worst severity Severe: N (%) (10 mg): 6 (20.0) | Mood altered: Events (10 mg): 23 | Musculoskeletal and connective tissue disorders, worst severity Mild: Events (10 mg): 0 | Musculoskeletal and connective tissue disorders, worst severity Mild: N (%) (10 mg): 0 | Musculoskeletal and connective tissue disorders, worst severity Moderate: Events (10 mg): 1 | Musculoskeletal and connective tissue disorders, worst severity Severe: Events (10 mg): 0 | Musculoskeletal and connective tissue disorders, worst severity Severe: N (%) (10 mg): 0 | Musculoskeletal and connective tissue disorders: Events (10 mg): 1 | Nausea: Events (10 mg): 1 | Nervous system disorders, worst severity Mild: Events (10 mg): 23 | Nervous system disorders, worst severity Moderate: Events (10 mg): 8 | Nervous system disorders, worst severity Moderate: N (%) (10 mg): 6 (20.0) | Nervous system disorders, worst severity Severe: Events (10 mg): 0 | Nervous system disorders, worst severity Severe: N (%) (10 mg): 0 | Nervous system disorders: Events (10 mg): 35 | Paraesthesia, worst severity Mild: Events (10 mg): 4 | Paraesthesia, worst severity Moderate: Events (10 mg): 0 | Paraesthesia, worst severity Moderate: N (%) (10 mg): 0 | Paraesthesia, worst severity Severe: Events (10 mg): 0 | Paraesthesia, worst severity Severe: N (%) (10 mg): 0 | Paraesthesia: Events (10 mg): 4 | Psychiatric disorders, worst severity Mild: Events (10 mg): 6 | Psychiatric disorders, worst severity Moderate: Events (10 mg): 29 | Psychiatric disorders, worst severity Severe: Events (10 mg): 21 | Respiratory, thoracic and mediastinal disorders: Events (10 mg): 0 | Respiratory, thoracic and mediastinal disorders: N (%) (10 mg): 0 | Somatic hallucination, worst severity Mild: Events (10 mg): 1 | Somatic hallucination, worst severity Moderate: Events (10 mg): 7 | Somatic hallucination, worst severity Severe: Events (10 mg): 0 | Somatic hallucination, worst severity Severe: N (%) (10 mg): 0 | Somatic hallucination: Events (10 mg): 8 | Tension headache, worst severity Mild: Events (10 mg): 1 | Tension headache, worst severity Moderate: Events (10 mg): 2 | Tension headache, worst severity Severe: Events (10 mg): 0 | Tension headache, worst severity Severe: N (%) (10 mg): 0 | Tension headache: Events (10 mg): 3 | Tension headache: N (%) (10 mg): 3 (10.0) | Time perception altered, worst severity Mild: Events (10 mg): 1 | Time perception altered, worst severity Moderate: Events (10 mg): 1 | Time perception altered, worst severity Severe: Events (10 mg): 0 | Time perception altered, worst severity Severe: N (%) (10 mg): 0 | Time perception altered: Events (10 mg): 2 | Incidence of Illusion, Hallucination (visual), Mood altered, Headache, Fatigue and Euphoric mood compared to placebo (10 mg and 25 mg): higher | Majority of the severe TEAEs (system organ class) (10 mg and 25 mg arms): psychiatric disorders | Serious adverse events or adverse events that led to withdrawal (10 mg and 25 mg, 12-week study): no serious adverse events or adverse events that led to withdrawal | Reported 'Mood altered' events: Being less judgmental (10 mg psilocybin (n = 30)): 1 | Reported 'Mood altered' events: Calm (10 mg psilocybin (n = 30)): 0 | Reported 'Mood altered' events: Clarity of thought (10 mg psilocybin (n = 30)): 0 | Reported 'Mood altered' events: Contemplative state (10 mg psilocybin (n = 30)): 1 | Reported 'Mood altered' events: Feeling more moody/sensitive (10 mg psilocybin (n = 30)): 1 | Reported 'Mood altered' events: Feeling of adrenaline release (10 mg psilocybin (n = 30)): 0 | Reported 'Mood altered' events: Feeling rested (10 mg psilocybin (n = 30)): 1 | Reported 'Mood altered' events: Increased compassion (10 mg psilocybin (n = 30)): 0 | Reported 'Mood altered' events: Increased creativity (10 mg psilocybin (n = 30)): 0 | Reported 'Mood altered' events: Increased empathy (10 mg psilocybin (n = 30)): 2 | Reported 'Mood altered' events: Increased sense of connectedness (10 mg psilocybin (n = 30)): 0 | Reported 'Mood altered' events: Increased wit (10 mg psilocybin (n = 30)): 1 | Reported 'Mood altered' events: Introspection (10 mg psilocybin (n = 30)): 5 | Reported 'Mood altered' events: Laughter (10 mg psilocybin (n = 30)): 1 | Reported 'Mood altered' events: More socially upbeat (10 mg psilocybin (n = 30)): 0 | Reported 'Mood altered' events: Negative mood (10 mg psilocybin (n = 30)): 0 | Reported 'Mood altered' events: Reflections (10 mg psilocybin (n = 30)): 3 | Reported 'Mood altered' events: Saw themselves from a new perspective (10 mg psilocybin (n = 30)): 0 | Reported 'Mood altered' events: Sense of oneness (10 mg psilocybin (n = 30)): 4 | Reported 'Mood altered' events: Sense of openness (10 mg psilocybin (n = 30)): 1 | Reported 'Mood altered' events: Unusual appreciation of music (10 mg psilocybin (n = 30)): 0 | Any TEAE: % of subjects (10 mg, listed as Psilocybin): (96.7) % | AEs potentially related to study treatment, % of AEs in arm (25 mg): 95.9% | Affect lability, worst severity Mild: Events (25 mg): 2 | Affect lability, worst severity Moderate: Events (25 mg): 1 | Affect lability, worst severity Severe: Events (25 mg): 0 | Affect lability, worst severity Severe: N (%) (25 mg): 0 | Affect lability: Events (25 mg): 3 | Affect lability: N (%) (25 mg): 3 (10.0) | Any Selected TEAE: % of subjects (25 mg): (90.0) % | Any Selected TEAE: N (%) (25 mg): 27 | Any TEAE leading to death: Events (25 mg): 0 | Any TEAE leading to death: N (%) (25 mg): 0 | Any TEAE leading to study discontinuation: Events (25 mg): 0 | Any TEAE leading to study discontinuation: N (%) (25 mg): 0 | Any TEAE related to study treatment: % of subjects (25 mg): (96.7) % | Any TEAE related to study treatment: N (%) (25 mg): 29 | Any TEAE, worst severity Mild: Events (25 mg): 14 | Any TEAE, worst severity Mild: N (%) (25 mg): 3 (10.0) | Any TEAE, worst severity Moderate: Events (25 mg): 52 | Any TEAE, worst severity Severe: Events (25 mg): 29 | Any TEAE: % of subjects (25 mg): 96.7% | Any serious TEAE related to study treatment: Events (25 mg): 0 | Any serious TEAE related to study treatment: N (%) (25 mg): 0 | Any serious TEAE: Events (25 mg): 0 | Any serious TEAE: N (%) (25 mg): 0
